# US20250289786A1, “CHLORINATED MONOCARBONYL CURCUMIN COMPOUNDS, PREPARATION METHOD, AND APPLICATION” (Southwest Medical University, priority 2024, published 2025)
# Columns and labels:
# [1] = system: CUMS depression model mice; assay: Forced swimming test in CUMS depression model mice; type: in vivo, C57BL/6J mice; settings: 10 mg/kg oral once a day
# Description: (§1) After one week of adaptive feeding, the newly purchased mice were divided into a blank group and CUMS model group. The mice in the blank group were not subjected to behavioral intervention and were fed normally. Mice in the model group were given 1-2 unpredictable behavioral stimuli every day. […] When the same stimulation is continuous, the stimulation method is changed to ensure that the same stimulation is not continuous, and the model construction period is 42 days.
# [2] = system: Nrf2, HO-1, BDNF, and TrkB in the hippocampus; assay: Western blot of hippocampal proteins in CUMS depression model mice; type: in vivo; settings: in words
# [3] = system: PC12 cells; assay: Inhibition of corticosterone (CORT)-induced PC12 cell damage; type: cell-based, rat; settings: 24 h
# [4] = system: PC12 cells; assay: Inhibition of H2O2-induced oxidative damage in PC12 cells; type: cell-based, rat
# Description: After 24 hours of incubation in the incubator, the relative proliferation rates of the cells were calculated according to the method under Section 2.1.
# [5] = system: CUMS depression model mice; assay: Sucrose preference test in CUMS depression model mice; type: in vivo, C57BL/6J mice; settings: 10 mg/kg oral once a day, 14th day, in words
# Description: as §1
# [6] = system: CUMS depression model mice; assay: Open field test in CUMS depression model mice; type: in vivo, C57BL/6J mice; settings: 10 mg/kg oral once a day, 28 days; model 327.22±161.39 cm
# Description: as §1
# [7] = ABTS free radical capture ability; type: biochemical; settings: 20 min reaction in the dark
# Description: 66.2 mg of K2S2O8 was weighed and placed in a 100 mL volumetric flask, pure water was added to the scale line to prepare a 2.45 mmol/L K2S2O8 solution. 192 mg of ABTS was accurately weighed and placed in a 25 mL volumetric flask, and the newly prepared K2S2O8 solution was added for dissolving and constant volume dilution, after standing in the dark for 20 h, the ABTS mother liquor was obtained. Before use, to make the measured value more accurate, the ABTS mother liquor needs to be diluted with a PBS solution of pH7.4 until the absorbance range of the ABTS working solution at 734 nm is 0.70±0.02.
# Drug concentration screening: To avoid the complete removal of free radicals by excessive drug concentration and the inability to compare the ability to capture ABTS free radicals, a preliminary screening of drug concentration is required before the formal test. A gradient concentration of compound solution was prepared, and a gradient concentration of Vit C solution was prepared as a positive control. A total of 450 μL of ABTS working solution was accurately absorbed into a 1.5 mL EP tube, and 150 μL of the gradient solution of each group of drugs was added, after 20 min of reaction in the dark, 150 μL of the reaction solution was taken and placed in a 96-well plate, the absorbance was measured by a microplate reader. Three duplicate wells were set for each concentration, and the drug concentration with absorbance between 0.2-0.7 was selected for subsequent determination.
# Determination operation: After the drug concentration screening was completed, 7 concentration gradient groups were set within this concentration range. A total of 450 μL of ABTS working solution was accurately absorbed into a 1.5 mL EP tube, and 150 μL of the gradient solution of each group of drugs was added. After 20 min of reaction in the dark, 150 μL of the reaction solution was taken and placed in a 96-well plate, the absorbance was measured by a microplate reader. Three duplicate wells were set for each concentration, the positive control group was a gradient solution of Vit C, and the blank control group was an equal volume of anhydrous ethanol.
# [8] = system: PC12 cells; assay: MTT toxicity (safety evaluation) on PC12 nerve cells; type: cell-based
# Description: The toxicity of each drug to PC12 cells was determined by MTT assay. The principle of the MTT colorimetric method: there is succinate dehydrogenase in the mitochondria of living cells, which can make exogenous MTT become blue-purple crystal formazan insoluble in water, this phenomenon cannot be observed in dead cells. The blue-purple crystal formazan can be dissolved by DMSO, and the absorbance value is measured by a microplate reader at a wavelength of 490 nm, which in turn reflects the number of living cells. […] The operation method is as follows:
# The cells were resuscitated with DMEM high glucose medium containing 10% fetal bovine serum and cultured in a 5% CO2 cell incubator at 37° C., when the cells grew to the logarithmic growth phase, they were inoculated into a 96-well plate and cultured for 24 hours, each well was added with 100 μL of each compound solution at the corresponding gradient concentration (60, 30, 15, 7.5, 3.75 μM), after incubation in the incubator for 24 h or 48 h, 20 μL of MTT was added to continue incubation for 4 h, the supernatant was discarded and 150 μL of DMSO was added to dissolve the blue-purple crystals, after shaking for 10 min, the cell viability was detected by a microplate reader, and classified according to the cytotoxicity standard. The relevant calculation formula is as follows: […]
# [9] = Solubility detection of CAK01-CAK07; type: physicochemical
# Description: The chlorinated monocarbonyl curcumin compounds CAK01-CAK07 prepared under the conditions of Example 1 were taken for nuclear magnetic resonance, mass spectrometry, solubility, and melting point detection.
compound,measurement,setting,value
"CNCCC(Oc1ccc(C(F)(F)F)cc1)c1ccccc1 (centres unmarked) [Flu, fluoxetine, reference compound]","forced swimming test, depressive symptoms / immobility time","[1]; 14th day, in words",did not show significant improvement in depressive symptoms
same,immobility time in the forced swimming test,[1]; 28 days,130.42 ± 59.96 s
same,"expression of Nrf2, HO-1, BDNF and TrkB",[2],also increased
same,effect on viability of CORT-damaged PC12 cells,"[3]; 3.75-60 μM drug with 514.6 μM CORT, in words",did not show the effect of restoring CORT-damaged cells
same,cell survival rate,"[4]; 7.5 μM drug with 585.8 μM H2O2, 24 h",41.92±0.66%
same,sucrose preference rate,[5],failed to significantly increase the sucrose preference rate
same,overall activity distance in the open field test,[6],705.43±159.14 cm
"CCN1C/C(=C\c2cc(Cl)c(O)c(Cl)c2)C(=O)/C(=C/c2cc(Cl)c(O)c(Cl)c2)C1 [CAK03, 3,5-bis ((E)-3,5-dichloro-4-hydroxybenzylidene)-1-ethylpiperidin-4-one]",IC50 values of ABTS captured,[7],46.56 µg/mL
same,relative cell proliferation rate,[3]; 15 μM drug with 514.6 μM CORT,59.15±0.51%
same,relative cell proliferation rate,[3]; 60 μM drug with 514.6 μM CORT,59.92±1.53%
same,effect on survival of H2O2-damaged PC12 cells,"[4]; drug concentration below 30 μM, 24 h, in words",increased the survival rate of cells in a concentration-dependent manner
same,Rank (cytotoxicity standard) 24 h,"[8]; PC12, 3.75 μM",1
same,Relative growth rate (%) 24 h,"[8]; PC12, 3.75 μM",96.25 ± 0.78%
same,Rank (cytotoxicity standard) 48 h,"[8]; PC12, 3.75 μM",1
same,Relative growth rate (%) 48 h,"[8]; PC12, 3.75 μM",98.96 ± 1.23%
same,Rank (cytotoxicity standard) 24 h,"[8]; PC12, 7.5 μM",1
same,Relative growth rate (%) 24 h,"[8]; PC12, 7.5 μM",87.65 ± 5.86%
same,Rank (cytotoxicity standard) 48 h,"[8]; PC12, 7.5 μM",1
same,Relative growth rate (%) 48 h,"[8]; PC12, 7.5 μM",94.59 ± 1.02%
same,Rank (cytotoxicity standard) 24 h,"[8]; PC12, 15 μM",1
same,Relative growth rate (%) 24 h,"[8]; PC12, 15 μM",88.25 ± 5.62%
same,Rank (cytotoxicity standard) 48 h,"[8]; PC12, 15 μM",1
same,Relative growth rate (%) 48 h,"[8]; PC12, 15 μM",89.84 ± 0.82%
same,Rank (cytotoxicity standard) 24 h,"[8]; PC12, 30 μM",1
same,Relative growth rate (%) 24 h,"[8]; PC12, 30 μM",82.96 ± 2.83%
same,Rank (cytotoxicity standard) 48 h,"[8]; PC12, 30 μM",1
same,Relative growth rate (%) 48 h,"[8]; PC12, 30 μM",95.25 ± 9.43%
same,Rank (cytotoxicity standard) 24 h,"[8]; PC12, 60 μM",1
same,Relative growth rate (%) 24 h,"[8]; PC12, 60 μM",77.51 ± 4.22%
same,Rank (cytotoxicity standard) 48 h,"[8]; PC12, 60 μM",3
same,Relative growth rate (%) 48 h,"[8]; PC12, 60 μM",30.33±6.54%
same,solubility,[9],0.08 mg/100 g
